Bridge positions count the residues as written; N and C are the ends. Ends that are not written are not given here. Peptide text beside a SMILES is read from it.

Data on 7 molecules can be found in patent US20230391841A1, “MACROCYCLIC PEPTIDES” (Herantis Pharma OYJ, priority 2019, published 2023).

The subject of series [1] is dopaminergic TH-positive neurons injured with MPP+. Briefly: Neuroprotective effect on dopaminergic TH-positive neurons injured with MPP+ (primary mesencephalic culture). The class given is cell-based, rat. The protocol: Neuroprotective effects of compounds 1-26 (SEQ ID NO: 1-26) were tested in an in vitro model in which primary cultures of rat embryonic mesencephalic neurons were stressed with MPP+ , the active metabolite of neurotoxin 1-methyl-4-phenyl-1,2,3,6-tetrahydropyridine (MPTP). MPP+ kills dopaminergic (TH-positive) neurons via a variety of toxic mechanisms, including mitochondrial dysfunction, generation of peroxynitrite, oxidative stress, ER stress and induction of apoptosis.
Culture of mesencephalic neurons. Rat dopaminergic neurons were cultured as described by Visanji et al., 2008. Briefly, the midbrains obtained from 15-day-old rat embryos (Janvier, France) were dissected, and the ventral portion of the mesencephalic flexure, a region of the developing brain rich in dopaminergic neurons, was used for the cell preparations. The midbrain cells were dissociated by trypsinization for 20 min at 37° C. (solution at a final concentration of 0.05% trypsin and 0.02% EDTA). The reaction was stopped by adding Dulbecco's modified Eagle's medium (DMEM) containing DNAase I grade II (0.5 mg/mL) and 10% of fetal calf serum (FCS). Cells were then mechanically dissociated by 3 passages through a 10 ml pipette. Cells were then centrifuged at 180×g for 10 min at +4° C. on a layer of BSA (3.5%) in L15 medium. The cell pellets were re-suspended in a defined culture serum-free medium consisting of Neurobasal (Invitrogen) supplemented with B27 (2%), L-glutamine (2 mM) and 2% of PS solution and 1Ong/ml of Brain-derived neurotrophic factor (BDNF) and 1 ng/mL of Glial-Derived Neurotrophic Factor (GDNF). Viable cells were counted in a Neubauer cytometer using the trypan blue exclusion test. The cells were seeded at a density of 40 000 cells/well in 96 well-plates (pre-coated with poly-L-lysine) and maintained in a humidified incubator at 37° C. in 5% CO2/95% air atmosphere. Half of the medium was changed every 2 days with fresh medium. On 96-wells plates, only 60 wells are used. To avoid any edge effect, the first and last lines and columns were not used for culture and were filled with sterile water.
CDNF as well as linear and macrocyclic compounds […] (SEQ ID NOs: 1-26) were tested. On day 6 of culture, the compounds were dissolved in culture medium and then pre-is incubated with mesencephalic neurons for 4 hours before the MPP+ application. Four hours after the preincubation of the compounds, MPP+ was added to a final concentration of 4 pM, diluted in control medium still in presence of compounds for 48 h.
48 h after intoxication, the cells were fixed by a solution of 4% paraformaldehyde in PBS, pH 7.3 for 20 min at room temperature. The cells were washed twice in PBS, and then permeabilized and non-specific sites were blocked with a solution of PBS containing 0.1% of saponin and 1% FCS for 15 min at room temperature. Next, the cells were incubated with (a) a monoclonal antibody anti-Tyrosine Hydroxylase (TH) produced in mouse at dilution of 1:10000 and with (b) a polyclonal antibody anti-alpha-synuclein (α-syn) antibody produced in rabbit at dilution of 1:400 in PBS containing 1% FCS, 0.1% saponin, for 2 h at room temperature.
48 h after intoxication, the cell culture supernatant was removed, and the cells fixed by a solution of 4% paraformaldehyde in PBS, pH 7.3 for 20 min at room temperature. The cells were washed twice in PBS, and then permeabilized and non-specific sites were blocked with a solution of PBS containing 0.1% of saponin and 1% FCS for 15 min at room temperature. Then, the cells were incubated with a) a monoclonal Anti-Tyrosine Hydroxylase (TH) antibody produced in mouse at dilution of 1:10000 in PBS containing 1% FCS, 0.1% saponin, for 2 hours at room temperature, and b) a polyclonal anti-postsynaptic density protein-95 (PSD-95) antibody produced in rabbit at dilution of 1:200 in PBS containing 1% FCS, 0.1% saponin, for 2 h at room temperature. This antibody stains specifically synapses. […]

The target of another series is GRP78-NBD. The experiment in a line: Binding to GRP78-NBD Kd (μM). From the text:
Table printed on a drawing sheet, FIG. 5B
Head of the field: Binding to GRP78-NBD Kd (μM)
GRP78-NBD is shown in a translucent surface model along with its cartoon trace. The Cys-Cys bond in compound 12 (SEQ ID NO: 12) is shown in sticks.
The binding affinities are obtained by a microscale thermophoresis-based cell-free assay.
GSK2606414 was used to inhibit PERK signaling and KIRA6 to inhibit IRE1alpha signaling. * p<0.05, ** p<0.01, *** p<0.001, **** p<0.0001 one-way ANOVA is test with post-hoc Fisher's LSD test for pairwise comparison vs MPP+ negative control. # p<0.05, ## p<0.01, ### p<0.001, #### p<0.0001 one-way ANOVA test with post-hoc Fisher's LSD test for pairwise comparison between effect of compound alone and its combination with UPR signal inhibitor.
Where the first naming reader finds the target: head: Binding to GRP78-NBD Kd (μM)

A short description of series [2]: In vivo pharmacokinetics after intravenous administration to rats. Conditions: rat, 5 mg/kg intravenous bolus, male Sprague-Dawley rats. Set-up: species or system male Sprague-Dawley rats. The protocol: The clearance and elimination of peptides can be mediated by multiple processes in vivo, including metabolism and renal elimination.
Test compounds were intravenously (i.v.) administered to male Spraque-Dawley rats (about is six weeks old, n=3 per compound) at 5 mg/kg. Blood samples were collected from jugular vein through implanted in-dwelling catheters (250 pl blood) into labelled polypropylene tubes containing anticoagulant (heparin) at 2 min, 5 min,15 min, 30 min, 1 h, 2 h and 4 h after compound administration and held on wet ice for a maximum of 30 minutes. The blood samples were centrifuged for plasma separation (4 °C, 21100 G, 5 min). Tolbutamide 500ng/ml with 10% TFA in acetonitrile or in MeCN was used as an internal standard solution.
The standard samples were prepared into rat plasma by spiking the matrix into concentrations 2-10 000 ng/ml of the analyte, respectively, and otherwise treated as the samples. To 50 pl aliquots of sample plasma was added 200 pl of internal standard. Samples were mixed (150 rpm, 15 min) and centrifugated (3000 rpm, 15min). The analytical method was optimized for reaction monitoring chromatographic (peak shape & retention) shifts and mass spectrometric properties (ionization efficiency, MS/MS detection). Supernatants were analyzed by UHPLC-TOF mass spectrometry using electrospray ionization.

As for “CDNF: full-length cerebral dopamine neurotrophic factor protein (rhCDNF), positive reference in the MPP+ neuroprotection model”, the “number of α-Syn inclusions (alpha-synuclein aggregates) in TH-positive neurons” value in series [1] (primary rat mesencephalic culture after MPP+ injury) was “reducing accumulation”. Moreover, in series [1] (primary rat mesencephalic culture, 4 h preincubation, MPP+ 48 h), the “protection of TH-positive neurons, their neurites and synapses from MPP+ toxicity” value is “neuroprotective”.

Usually Kd stands for a measure of binding affinity in units of concentration. As for “KSILDDWGETCKGCAE (disulfide 11-14) [Compound 9]”, the dissociation constant (Kd) at GRP78-NBD turned out to be 11 µM.

For the molecule “VDLRKMRVAELKQILHSWGEECRACAE (disulfide 22-25) [Compound 1]”, the dissociation constant (Kd) at GRP78-NBD came out at 0.06 µM.

Usually AUC(0-inf) stands for total exposure, with the tail of the curve extrapolated. Low readings indicate low exposure, high ones high exposure. As a reminder, the MRT is a mean duration of stay, worked out from the concentration-time curve. What is called Vd is the apparent volume that relates the amount in the body to the concentration in plasma or blood. For orientation: half-life means the time needed for the level to fall by half in the phase considered. For the molecule `CC[C@H](C)[C@H](NC(=O)[C@H](CCCCN)NC(=O)[C@H](CCCCN)NC(=O)[C@H](CC(C)C)NC(=O)[C@H](CCC(=O)O)NC(=O)[C@H](CCCCN)NC(=O)[C@@H](NC(=O)[C@H](CCCNC(=N)N)NC(=O)[C@H](CC(C)C)NC(=O)[C@H](CCCCN)NC(=O)[C@H](CCCCN)NC(=O)[C@H](CC(C)C)NC(=O)[C@H](CC(=O)O)NC(=O)[C@@H](N)C(C)C)C(C)C)C(=O)N[C@@H](CC(C)C)C(=O)N[C@@H](CC(=O)O)C(=O)N[C@@H](CC(=O)O)C(=O)N[C@@H](Cc1c[nH]c2ccccc12)C(=O)NCC(=O)N[C@@H](CCC(=O)O)C(=O)N[C@H](C(=O)N[C@H]1CSSC[C@@H](C(=O)N[C@@H](C)C(=O)N[C@@H](CCC(=O)O)C(=O)O)NC(=O)CNC(=O)[C@H](CCCCN)NC1=O)[C@@H](C)O` [Compound 3] (H-VDLKKLRVKELKKILDDWGETCKGCAE-OH; disulfide 22-25), in series [2] (in vivo), the AUC(0-inf) was found to be 4150 ng·h/mL, the mean residence time (MRT) is 1.07 min, the Vd stood at 0.02 L/kg and the half-life was 4.52 min. In addition, in series [2] (plasma, read-out: CI), the clearance came out at 20.1 mL/min/kg.

With “VDLKKLRVKELKKILDDWGETCKGCAE (disulfide 22-25) [Compound 3]”, the Kd at GRP78-NBD stood at 0.29 µM.

As for “GEECRACAEKT (disulfide 4-7) [Compound 15]”, on GRP78-NBD, the Kd turned out to be 3.21 µM.

Consider “WGETCKGCAEKS (disulfide 5-8) [Compound 13]”, for which, at GRP78-NBD, the Kd stood at 1.08 µM.
